SMILES strings stand for the structures. Where two headings read alike, the source gives them in different places.

These results are taken from patent US10752587B2, “Homobispiperidinyl derivatives as liver X receptor beta agonists, compositions and their use” (Merck Sharp & Dohme Corp., priority 2015, dated 2020).

The target of test [1] is T1, glutathione-S-transferase (GST) tagged LXRalpha LBD (ligand binding domain) (Homo sapiens, UniProt Q13133).
T1 construct: purchased Invitrogen pv4655
T1 sequence (Q13133 209-447 limits assumed): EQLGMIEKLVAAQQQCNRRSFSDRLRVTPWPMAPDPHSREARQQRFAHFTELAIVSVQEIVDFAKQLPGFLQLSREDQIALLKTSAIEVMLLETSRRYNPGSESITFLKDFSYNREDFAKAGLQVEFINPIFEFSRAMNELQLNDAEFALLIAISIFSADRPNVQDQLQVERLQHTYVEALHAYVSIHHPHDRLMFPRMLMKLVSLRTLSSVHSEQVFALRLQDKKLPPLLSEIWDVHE
Description: LanthaScreen TR-FRET Liver X Receptor Coactivator Assay, co-activator recruitment to LXRalpha LBD. Format: biochemical. The conditions noted are these: for Emax: read-out: LXR alpha Activity @ max dose (%); for LXR alpha IP (nM) / EC50: potency (Inflection Point, IP), co-activator recruitment to LXRalpha LBD, in relation to T0901317; for EC50: read-out: LXR alpha IP. A digest of the protocol: (§1)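 TR-FRET coactivator recruitment; compound + LBD, then fluorescein-coactivator peptide/Tb-anti-GST Ab mix; RT incubation; IP and Emax vs T0901317.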
(In general: Time-resolved FRET reads energy transfer from a long-lived donor to a nearby acceptor.)

Test [2] deals with T2, glutathione-S-transferase (GST) tagged LXRbeta LBD (ligand binding domain) (Homo sapiens, UniProt P55055).
T2 construct: purchased Invitrogen pv4658.pps
T2 sequence (P55055 222-460 limits assumed): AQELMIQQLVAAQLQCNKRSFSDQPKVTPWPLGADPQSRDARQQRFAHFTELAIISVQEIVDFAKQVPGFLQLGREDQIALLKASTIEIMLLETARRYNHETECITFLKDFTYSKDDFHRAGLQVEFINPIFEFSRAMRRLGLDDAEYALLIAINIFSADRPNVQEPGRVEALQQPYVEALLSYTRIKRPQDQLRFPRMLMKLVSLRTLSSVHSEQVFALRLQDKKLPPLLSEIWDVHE
The test is described as follows: LanthaScreen TR-FRET Liver X Receptor Coactivator Assay, co-activator recruitment to LXRbeta LBD. The format is biochemical. The conditions noted are these: for Emax: read-out: LXR beta Activity @ max dose (%); for EC50: potency (Inflection Point, IP), co-activator recruitment to LXRbeta LBD, in relation to T0901317. In a few lines: as §1

Setting [3] is: efficacy at max dose, in relation to reference dual agonist T0901317.

`CC[C@](O)(C(=O)N1CCC(CC2CCN(c3ccc(C(=O)N(C)C)c(Cl)c3)CC2)CC1)c1ccccc1` [Example 2-110, 2-chloro-4-[4-({1-[(2R)-2-hydroxy-2-phenylbutanoyl]piperidin-4-yl}methyl)piperidin-1-yl]-N,N-dimethyl-benzamide]: the Emax in test [1] (setting [3]) was 17%; in test [2] (setting [3]), 50%. Besides, the “LXR alpha IP (nM)” value in test [1] is listed as “NO IP”. Further, the EC50 in test [2] (read-out: LXR beta IP) was 54 nM.

`Cc1cc(Cl)cc([C@@](O)(C(=O)N2CCC(CC3CCN(c4ccc(C(=O)N(C)C)c(Cl)c4)CC3)CC2)C(F)(F)F)c1` [Example 2-111, 2-chloro-4-[4-({1-[(2R)-2-(3-chloro-5-methylphenyl)-3,3,3-trifluoro-2-hydroxy-propanoyl]piperidin-4-yl}methyl)piperidin-1-yl]-N,N-dimethyl-benzamide]: the Emax in test [1] (setting [3]) amounted to 0%; in test [2] (setting [3]) it was 28%. Moreover, the “LXR alpha IP (nM)” value in test [1] is on record as “NO IP”. In test [2] (read-out: LXR beta IP), the EC50 worked out at 7 nM.

For `Cc1cccc([C@@](O)(C(=O)N2CCC(CC3CCN(c4ccc(C(=O)N(C)C)c(Cl)c4)CC3)CC2)C(F)(F)F)c1` [Example 2-112, 2-chloro-N,N-dimethyl-4-[4-({1-[(2R)-3,3,3-trifluoro-2-hydroxy-2-(3-methylphenyl)propanoyl]piperidin-4-yl}methyl)piperidin-1-yl]benzamide], the Emax in test [1] (setting [3]) turned out to be 10%; in test [2] (setting [3]) it was 44%. Besides, the “LXR alpha IP (nM)” value in test [1] is given as “NO IP”. For the same compound, the EC50 in test [2] (read-out: LXR beta IP) was found to be 8 nM.

As to `CCc1cccc([C@@](O)(C(=O)N2CCC(CC3CCN(c4ccc(C(=O)N(C)C)c(Cl)c4)CC3)CC2)C(F)(F)F)c1` [Example 2-113, 2-chloro-4-[4-({1-[(2R)-2-(3-ethyl-phenyl)-3,3,3-trifluoro-2-hydroxy-propanoyl]piperidin-4-yl}methyl)piperidin-1-yl]-N,N-dimethyl-benzamide], the Emax in test [1] (setting [3]) amounted to 4%; in test [2] (setting [3]), 36%. In addition, in test [1], the “LXR alpha IP (nM)” value is given as “NO IP”. Besides, the EC50 in test [2] (read-out: LXR beta IP) came to 15 nM.

Take `COc1cccc([C@@](O)(C(=O)N2CCC(CC3CCN(c4ccc(C(=O)N(C)C)c(Cl)c4)CC3)CC2)C2CC2)c1` [Example 2-114, 2-chloro-4-[4-({1-[(2R)-2-cyclopropyl-2-hydroxy-2-(3-methoxy-phenyl)acetyl]piperidin-4-yl}methyl)piperidin-1-yl]-N,N-dimethyl-benzamide]: in test [1], the “LXR alpha IP (nM)” value was “NO IP” and the Emax turned out to be 6%. In test [2] (LXR beta IP (nM)), this compound yielded an EC50 of 266 nM. Further, the Emax in test [2] came to 19%.

Consider `COc1cccc([C@@](O)(C(=O)N2CCC(CC3CCN(c4ccc(C(=O)N(C)C)c(Cl)c4)CC3)CC2)C(C)C)c1` [Example 2-115, 2-chloro-4-[4-({1-[(2R)-2-hydroxy-2-(3-methoxy-phenyl)-3-methyl-butanoyl]piperidin-4-yl}methyl)piperidin-1-yl]-N,N-dimethyl-benzamide], for which the figures for the Emax in test [1] (setting [3]) and in test [2] (setting [3]) were 0% and 30%, respectively. Also, the “LXR alpha IP (nM)” value in test [1] is recorded as “NO IP”. Besides, in test [2] (read-out: LXR beta IP), the EC50 came to 53 nM.

`CN(C)C(=O)c1ccc(N2CCC(CC3CCN(C(=O)[C@](O)(c4cccc(OC(F)F)c4)C(F)(F)F)CC3)CC2)cc1Cl` [Example 2-116, 2-chloro-4-{4-[(1-{(2R)-2-[3-(difluoro-methoxy)phenyl]-3,3,3-trifluoro-2-hydroxy-propanoyl}piperidin-4-yl)methyl]piperidin-1-yl}-N,N-dimethyl-benzamide]: the values for the Emax in test [1] (setting [3]) and in test [2] (setting [3]) were 20% and 58%, respectively. The values for the EC50 in test [1] and in test [2] (read-out: LXR beta IP) were 227 nM and 7 nM, respectively.

For the compound `CN(C)C(=O)c1ccc(N2CCC(CC3CCN(C(=O)[C@](N)(c4cc(Cl)cc(Cl)c4)C(F)(F)F)CC3)CC2)cc1Cl` [Example 2-117, 4-[4-({1-[(2R)-2-amino-2-(3,5-dichloro-phenyl)-3,3,3-trifluoro-propanoyl]piperidin-4-yl}methyl)piperidin-1-yl]-2-chloro-N,N-dimethyl-benzamide], the Emax in test [1] (setting [3]) was determined as 29%; in test [2] (setting [3]), 125%. Besides, the values for the EC50 in test [1] and in test [2] (read-out: LXR beta IP) were 1010 nM and 22 nM, respectively.

Consider `CN(C)C(=O)c1ccc(N2CCC(CC3CCN(C(=O)C(O)(c4ccccn4)C4CC4)CC3)CC2)cc1Cl` (centres unmarked) [Example 2-118, 2-chloro-4-[4-({1-[cyclopropyl (hydroxy)pyridin-2-ylacetyl]piperidin-4-yl}methyl)piperidin-1-yl]-N,N-dimethyl-benzamide], for which the “LXR alpha IP (nM)” value in test [1] is listed as “NO IP”. For the same compound, the values for the Emax in test [1] and in test [2] were 11% and 68%, respectively. For the same compound, the EC50 in test [2] (LXR beta IP (nM)) came out at 219 nM.

With `COc1cccc([C@](N)(C(=O)N2CCC(CC3CCN(c4ccc(C(=O)N(C)C)c(Cl)c4)CC3)CC2)C(F)(F)F)c1` [Example 2-119, 4-[4-({1-[(2S)-2-amino-3,3,3-trifluoro-2-(3-methoxy-phenyl)propanoyl]piperidin-4-yl}methyl)piperidin-1-yl]-2-chloro-N,N-dimethyl-benzamide], the results for the Emax in test [1] (setting [3]) and in test [2] (setting [3]) were 11% and 99%, respectively. In addition, the “LXR alpha IP (nM)” value in test [1] is “NO IP”. Also, the EC50 in test [2] (read-out: LXR beta IP) came out at 208 nM.

In the case of `CN(C)C(=O)c1ccc(N2CCC(CC3CCN(C(=O)[C@](O)(c4cccc(CC#N)c4)C(F)(F)F)CC3)CC2)cc1Cl` [Example 2-120, 2-chloro-4-{4-[(1-{(2R)-2-[3-(cyanomethyl)phenyl]-3,3,3-trifluoro-2-hydroxy-propanoyl}piperidin-4-yl)methyl]piperidin-1-yl}-N,N-dimethyl-benzamide], the Emax was found to be 6% in test [1] (setting [3]) and 46% in test [2] (setting [3]). Moreover, in test [1], the “LXR alpha IP (nM)” value is on record as “NO IP”. Besides, in test [2] (read-out: LXR beta IP), the EC50 was determined as 16 nM.

Take `CN(C)C(=O)c1ccc(N2CCC(CC3CCN(C(=O)[C@](O)(c4cc(Cl)cc(Cl)c4)C(F)F)CC3)CC2)cc1Cl` [Example 2-121, 2-chloro-4-[4-({1-[(2R)-2-(3,5-dichloro-phenyl)-3,3-difluoro-2-hydroxy-propanoyl]piperidin-4-yl}methyl)piperidin-1-yl]-N,N-dimethyl-benzamide]: the results for the Emax in test [1] (setting [3]) and in test [2] (setting [3]) were 0% and 51%, respectively. For the same compound, the “LXR alpha IP (nM)” value in test [1] is reported as “NO IP”. Moreover, the EC50 in test [2] (read-out: LXR beta IP) was determined as 7 nM.

With `CN(C)C(=O)c1ccc(N2CCC(CC3CCN(C(=O)C(O)(c4cccc(F)c4)C(F)F)CC3)CC2)cc1Cl` (centres unmarked) [Example 2-122, 2-chloro-4-[4-({1-[3,3-difluoro-2-(3-fluorophenyl)-2-hydroxy-propanoyl]piperidin-4-yl}methyl)piperidin-1-yl]-N,N-dimethyl-benzamide], the Emax amounted to 29% in test [1] (setting [3]) and 69% in test [2] (setting [3]). The EC50 in test [1] came to 543 nM; in test [2] (read-out: LXR beta IP), 27 nM.

Take `CN(C)C(=O)c1ccc(N2CCC(CC3CCN(C(=O)C(N)(c4ccccc4)C(F)(F)C(F)(F)F)CC3)CC2)cc1Cl` (centres unmarked) [Example 2-123, 4-(4-{[1-(2-amino-3,3,4,4,4-pentafluoro-2-phenylbutanoyl)piperidin-4-yl]methyl}piperidin-1-yl)-2-chloro-N,N-dimethyl-benzamide]: the Emax is 21% in test [1] (setting [3]) and 106% in test [2] (setting [3]). In addition, the EC50 in test [1] was 1470 nM; in test [2] (read-out: LXR beta IP), 335 nM.

In the case of `COc1cccc([C@@](O)(C(=O)N2CCC(CC3CCN(c4ccc(C(=O)N(C)C)cc4)CC3)CC2)C(F)(F)F)c1` [Example 2-124, N,N-dimethyl-4-[4-({1-[(2R)-3,3,3-trifluoro-2-hydroxy-2-(3-methoxy-phenyl)propanoyl]piperidin-4-yl}methyl)piperidin-1-yl]benzamide], the Emax in test [1] (setting [3]) was 4%; in test [2] (setting [3]), 55%. In addition, in test [1], the “LXR alpha IP (nM)” value is “NO IP”. The EC50 in test [2] (read-out: LXR beta IP) was determined as 43 nM.

For `CC(C)c1cccc([C@@](O)(C(=O)N2CCC(CC3CCN(c4ccc(C(=O)N(C)C)cc4)CC3)CC2)C(F)(F)F)c1` [Example 2-125, N,N-dimethyl-4-{4-[(1-{(2R)-3,3,3-trifluoro-2-hydroxy-2-[3-(1-methyl-ethyl)phenyl]propanoyl}piperidin-4-yl)methyl]piperidin-1-yl}benzamide], the Emax in test [1] (setting [3]) was 15%; in test [2] (setting [3]) it was 64%. Moreover, the figures for the EC50 in test [1] and in test [2] (read-out: LXR beta IP) were 459 nM and 52 nM, respectively.

As to `CN(C)C(=O)c1ccc(N2CCC(CC3CCN(C(=O)C(O)(c4cc(F)cc(F)c4)C(F)(F)F)CC3)CC2)cc1` (centres unmarked) [Example 2-126, 4-[4-({1-[2-(3,5-difluoro-phenyl)-3,3,3-trifluoro-2-hydroxy-propanoyl]piperidin-4-yl}methyl)piperidin-1-yl]-N,N-dimethyl-benzamide], the Emax was 33% in test [1] (setting [3]) and 118% in test [2] (setting [3]). The EC50 in test [1] is 126 nM; in test [2] (read-out: LXR beta IP) it was 38 nM.
